Measured values taken from ChEMBL document CHEMBL1201862, “PubChem BioAssay data set” (2004).
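Grown in 96-well plates, cells were treated for 48 hours with each compound at five concentrations. Insufficient inhibition: endpoint recorded as highest concentration tested. GI50 = concentration required for 50% inhibition of growth.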 Calls of active or inactive are those of the source. Rule as the data show it: active = GI50 up to about 1.1 µM and inactive = higher.

Key:
Test in all cases: DTP human tumour cell line panel, 48 h
[1] = system: SF-295
[2] = system: MDA-MB-435
[3] = system: EKVX
[4] = system: NCI-H522
[5] = system: HCT-15
[6] = system: OVCAR-4
[7] = system: KM12
[8] = system: BT-549
[9] = system: HCT-116
[10] = system: A498
[11] = system: MOLT-4
[12] = system: CAKI-1
[13] = system: UO-31
[14] = system: Hs-578T
[15] = system: T47D
[16] = system: CCRF-CEM
[17] = system: SN12C
[18] = system: NCI-H460
[19] = system: DU-145
[20] = system: Malme-3M

SMILES	GI50 [1]	GI50 [2]	GI50 [3]	GI50 [4]	GI50 [5]	GI50 [6]	GI50 [7]	GI50 [8]	GI50 [9]	GI50 [10]	GI50 [11]	GI50 [12]	GI50 [13]	GI50 [14]	GI50 [15]	GI50 [16]	GI50 [17]	GI50 [18]	GI50 [19]	GI50 [20]
COC(=O)/C=C/CC(=O)NS(C)(=O)=O	> 10 µM (inactive)	> 10 µM (inactive)	> 10 µM (inactive)	> 10 µM (inactive)	> 10 µM	> 10 µM (inactive)	> 10 µM (inactive)	> 10 µM (inactive)	> 10 µM (inactive)	> 10 µM (inactive)	> 10 µM (inactive)	> 10 µM (inactive)	> 10 µM (inactive)	> 10 µM (inactive)	> 10 µM (inactive)	> 10 µM (inactive)	> 10 µM (inactive)	> 10 µM (inactive)	> 10 µM (inactive)	> 10 µM (inactive)
O=C(NC1CCCCC1)c1nn[nH]c1Cl	> 100 µM (inactive)	> 100 µM (inactive)	> 100 µM (inactive)	–	> 100 µM	> 100 µM (inactive)	> 100 µM (inactive)	> 100 µM (inactive)	> 100 µM (inactive)	> 100 µM (inactive)	> 100 µM (inactive)	> 100 µM (inactive)	> 100 µM (inactive)	> 100 µM (inactive)	> 100 µM (inactive)	> 100 µM (inactive)	> 100 µM (inactive)	> 100 µM (inactive)	> 100 µM (inactive)	–
CC1CCC2C(C)C(OC(=O)CCC(=O)O)OC3OC4(C)CCC1C32OO4 (configuration not stated)	15.8 µM (inactive)	1.51 µM (inactive)	6.27 µM (inactive)	–	0.388 µM	7.01 µM (inactive)	1.33 µM (inactive)	11.2 µM (inactive)	0.759 µM (active)	27.2 µM (inactive)	0.346 µM (active)	12.1 µM (inactive)	1.33 µM (inactive)	16 µM (inactive)	0.828 µM (active)	3.78 µM (inactive)	18 µM (inactive)	7.31 µM (inactive)	21.4 µM (inactive)	–
CC1OC(OC2C(O[C@H]3CC[C@@]4(C)C(=CC[C@H]5[C@@H]6C[C@@H]7O[C@]8(CC[C@H](C)CN8)[C@@H](C)[C@@H]7[C@@]6(C)CC[C@@H]54)C3)OC(CO)C(O)C2OC2OC(CO)C(O)C(O)C2O)C(O)C(O)C1O (some centres not stated)	18.4 µM (inactive)	23.5 µM (inactive)	16.5 µM (inactive)	12.8 µM (inactive)	16.7 µM	19.8 µM (inactive)	20 µM (inactive)	17 µM (inactive)	20.1 µM (inactive)	26.9 µM (inactive)	18.9 µM (inactive)	19.2 µM (inactive)	19.1 µM (inactive)	14.7 µM (inactive)	19.5 µM (inactive)	21.6 µM (inactive)	20.8 µM (inactive)	17.8 µM (inactive)	19.4 µM (inactive)	18 µM (inactive)
CC(C(=O)O)C(C)(O)C(=O)O (configuration not stated)	–	> 100 µM (inactive)	> 100 µM (inactive)	> 100 µM (inactive)	> 100 µM	> 100 µM (inactive)	> 100 µM (inactive)	> 100 µM (inactive)	> 100 µM (inactive)	> 100 µM (inactive)	> 100 µM (inactive)	> 100 µM (inactive)	> 100 µM (inactive)	> 100 µM (inactive)	> 100 µM (inactive)	> 100 µM (inactive)	> 100 µM (inactive)	> 100 µM (inactive)	> 100 µM (inactive)	> 100 µM (inactive)
CC(=N/NC(=S)N1CCCCC1)/C(C)=N\NC(=S)N1CCCCC1	1.71 µM (inactive)	1.87 µM (inactive)	1.63 µM (inactive)	2.09 µM (inactive)	2.34 µM	1.74 µM (inactive)	1.82 µM (inactive)	1.92 µM (inactive)	2.34 µM (inactive)	1.5 µM (inactive)	2.13 µM (inactive)	1.71 µM (inactive)	1.59 µM (inactive)	1.85 µM (inactive)	1.54 µM (inactive)	–	1.69 µM (inactive)	1.74 µM (inactive)	1.61 µM (inactive)	2.08 µM (inactive)
COC(=O)c1c(C)cccc1C1CN=NC12Cc1cccc(C)c1C2=O (configuration not stated)	–	31.1 µM (inactive)	32 µM (inactive)	15.9 µM (inactive)	34 µM	23.9 µM (inactive)	31.7 µM (inactive)	23.6 µM (inactive)	28 µM (inactive)	52 µM (inactive)	–	37.7 µM (inactive)	14.4 µM (inactive)	> 100 µM (inactive)	24 µM (inactive)	19.8 µM (inactive)	27.2 µM (inactive)	12.6 µM (inactive)	47.3 µM (inactive)	29.1 µM (inactive)
